Reference: patent US20110237644A1, “UBIQUITIN SPECIFIC PROTEASES RESPONSIBLE FOR MCL-1 STABILITY AND USES THEREOF” (Les Laboratoires Servier, priority 2008, published 2011)

Experiments:
[1] = biological target: T1, A1 (Homo sapiens, UniProt Q16548); settings: cited from earlier work
T1 sequence (Q16548 1-175): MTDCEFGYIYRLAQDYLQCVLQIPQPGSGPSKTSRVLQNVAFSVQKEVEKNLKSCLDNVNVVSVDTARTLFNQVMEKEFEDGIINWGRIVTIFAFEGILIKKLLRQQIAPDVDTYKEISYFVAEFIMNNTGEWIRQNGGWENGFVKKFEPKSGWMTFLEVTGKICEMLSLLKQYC

[2] = test system: HeLa cells; experiment: Flow cytometry, subG1-phase cells (apoptosis); format: cell-based, human; settings: ABT-737 (3 μM) in Luc siRNA-treated HeLa cells
Procedure: FIG. 13: Flow cytometry of HeLa cancer cell transfected with luc, mcl-1, USP46v1, USP46v4 or USP46 pool siRNA. Cell cycle was determined 72 h after siRNA transfection and 18 h after ABT-737 treatment (3 μM).
FIG. 14: ABT-737-induced subG1 transition in HeLa cells determined 72 h after siRNA transfection and 24 h after ABT-737 treatment. The percentage of cells in the subG1 (<2N) are means+/−SD of duplicate values (A). Mcl-1 endogenous level was also determined in the presence of siRNA targeting either luciferase, Mcl-1 or USP46. Anti-Stat3 antibody was used as loading control (B).
All cell lines used were maintained in their respective medium. All culture media were supplemented with 100 units/ml penicillin and 0.1 mg/ml streptomycin, and cell lines were incubated at 37° C. in a humidified atmosphere containing 5% CO2. For siRNA transfection, siRNA (40 pmol, 72 nM final) were complexed with 2 μl of Oligofectamine (Invitrogen) in Opti-MEM (Invitrogen) and added to 24-well plates prior to cell seeding. In all conditions, Opti-MEM was replaced with appropriate medium 5 hours after transfection. […]
To confirm the effect of USP46 siRNA on the sensitization of cells to ABT-737-induced apoptosis in HeLa cells, the number of subG1-phase cells is quantified which reflect mainly apoptosis. […]

[3] = biological target: Mcl-1 (Homo sapiens, UniProt Q07820); settings: cited from earlier work
Chain of Mcl-1 (Q07820 whole entry, species assumed): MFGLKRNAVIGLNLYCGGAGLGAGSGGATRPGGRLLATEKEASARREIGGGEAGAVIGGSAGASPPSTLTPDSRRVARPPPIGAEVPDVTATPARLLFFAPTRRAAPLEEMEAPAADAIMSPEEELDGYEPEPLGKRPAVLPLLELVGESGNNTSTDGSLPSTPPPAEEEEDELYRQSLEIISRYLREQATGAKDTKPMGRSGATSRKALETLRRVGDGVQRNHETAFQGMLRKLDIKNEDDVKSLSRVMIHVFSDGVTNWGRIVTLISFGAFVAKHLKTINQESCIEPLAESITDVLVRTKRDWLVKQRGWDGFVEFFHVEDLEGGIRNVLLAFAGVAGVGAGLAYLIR

[4] = test system: Mcl-1 in HCT116 cells; experiment: USP siRNA screening on Mcl-1 half-life with cycloheximide, Western blot; format: cell-based, human; settings: confirmation experiment
Procedure: FIG. 1 (FIGS. 1.1, 1.2, 1.3): Schematic representation of Mcl-1 modulation following USP silencing at t=0, 30 min or 1 h of cycloheximide treatment in HCT116 cells. Mcl-1 increase and decrease are respectively presented in blue and green and siRNA toxicity is presented in grey. Absence of color corresponds to absence of any effect. Selected USP for confirmation experiments are highlighted in green (USP5, USP13, USP19, USP21, USP22, USP26, USP28, USP38, USP42 and USP46). SiRNA designed to target pairs of USP are indicated on the right of the table.
For the screening, the indicated amounts of siRNA (40 pmol, 72 nM final) were complexed with 2 μl of Oligofectamine (Invitrogen) in Opti-MEM (Invitrogen) and added to 24-well plates prior to cell seeding. 150 000 HCT116 cells were next plated. Opti-MEM was replaced with appropriate medium 5 hours after transfection. After 72 h of transfection and before harvesting, cells were treated or not with cycloheximide (30 μg/ml) for 30 min or 1 hour or treated with MG132 (30 μM) for 90 min.
Cells were washed once in chilled PBS and harvested by trypsination. Floating and trypsinized cells were pooled and collected by centrifugation. […] Proteins were quantitated using bicinchoninic acid (Sigma-Aldrich) according to manufacturer's instructions. […] Signal was detected using ECL reagent (Amersham) following manufacturer's instructions. […]

Row | SMILES | affinity for A1 [1] | subG1 cells [2] | affinity for Mcl-1 [3] | endogenous Mcl-1 level [4]
1 | CN(C)CC[C@H](CSc1ccccc1)Nc1ccc(S(=O)(=O)NC(=O)c2ccc(N3CCN(Cc4ccccc4-c4ccc(Cl)cc4)CC3)cc2)cc1[N+](=O)[O-] [ABT-737] | low affinity | 35%±6.6% | low affinity | –
2 | C[C@@H]1C[C@@H]([C@H](O)CC2CC(=O)NC(=O)C2)C(=O)[C@@H](C)C1 [cycloheximide] | – | – | – | significant decrease
